Test: molar heat capacity at constant pressure; xn = mol fraction of the nth substance listed
Details: 101.3 kPa, Liquid, Small sample (50 mg) DSC

CCC(C)(C)O [2-methylbutan-2-ol] + CCCCCCC
Details | molar heat capacity at constant pressure [J/K/mol]
292.14 K, x1 = 0.9609 | 240.86
292.16 K, x1 = 0.0249 | 228.51
293.14 K, x1 = 0.0061 | 223.05
293.14 K, x1 = 0.0249 | 228.85
293.14 K, x1 = 0.0494 | 233.49
293.14 K, x1 = 0.1 | 238.13
293.14 K, x1 = 0.1547 | 240.82
293.14 K, x1 = 0.1999 | 242.32
293.14 K, x1 = 0.2993 | 244.48
293.14 K, x1 = 0.4051 | 245.2
293.14 K, x1 = 0.4986 | 245.35
293.14 K, x1 = 0.5981 | 245.12
293.14 K, x1 = 0.7015 | 244.38
293.14 K, x1 = 0.8023 | 243.13
293.14 K, x1 = 0.9139 | 242.22
293.14 K, x1 = 0.9609 | 241.95
294.15 K, x1 = 0.0061 | 223.39
294.15 K, x1 = 0.0249 | 229.18
294.15 K, x1 = 0.0494 | 233.86
294.15 K, x1 = 0.1 | 238.71
294.15 K, x1 = 0.1547 | 241.58
294.15 K, x1 = 0.1999 | 243.15
294.15 K, x1 = 0.2993 | 245.43
294.15 K, x1 = 0.4051 | 246.27
294.15 K, x1 = 0.4986 | 246.46
294.15 K, x1 = 0.5981 | 246.23
294.15 K, x1 = 0.7015 | 245.52
294.15 K, x1 = 0.8023 | 244.34
294.15 K, x1 = 0.9139 | 243.38
294.15 K, x1 = 0.9609 | 243.11
295.14 K, x1 = 0.0061 | 223.7
295.14 K, x1 = 0.0249 | 229.37
295.14 K, x1 = 0.0494 | 234.25
295.14 K, x1 = 0.1 | 239.22
295.14 K, x1 = 0.1547 | 242.31
295.14 K, x1 = 0.1999 | 243.96
295.14 K, x1 = 0.2993 | 246.32
295.14 K, x1 = 0.4051 | 247.28
295.14 K, x1 = 0.4986 | 247.54
295.14 K, x1 = 0.5981 | 247.38
295.14 K, x1 = 0.7015 | 246.7
295.14 K, x1 = 0.8023 | 245.54
295.14 K, x1 = 0.9139 | 244.5
295.14 K, x1 = 0.9609 | 244.22
296.14 K, x1 = 0.0061 | 223.96
296.14 K, x1 = 0.0249 | 229.63
296.14 K, x1 = 0.0494 | 234.59
296.14 K, x1 = 0.1 | 239.76
296.14 K, x1 = 0.1547 | 242.94
296.14 K, x1 = 0.1999 | 244.6
296.14 K, x1 = 0.2993 | 247.2
296.14 K, x1 = 0.4051 | 248.27
296.14 K, x1 = 0.4986 | 248.61
296.14 K, x1 = 0.5981 | 248.5
296.14 K, x1 = 0.7015 | 247.88
296.14 K, x1 = 0.8023 | 246.68
296.14 K, x1 = 0.9139 | 245.64
296.14 K, x1 = 0.9609 | 245.31
297.15 K, x1 = 0.0061 | 224.33
297.15 K, x1 = 0.0249 | 229.81
297.15 K, x1 = 0.0494 | 235.01
297.15 K, x1 = 0.1 | 240.36
297.15 K, x1 = 0.1547 | 243.63
297.15 K, x1 = 0.1999 | 245.46
297.15 K, x1 = 0.2993 | 248.18
297.15 K, x1 = 0.4051 | 249.33
297.15 K, x1 = 0.4986 | 249.76
297.15 K, x1 = 0.5981 | 249.72
297.15 K, x1 = 0.7015 | 249.04
297.15 K, x1 = 0.8023 | 247.89
297.15 K, x1 = 0.9139 | 246.86
297.15 K, x1 = 0.9609 | 246.4
298.14 K, x1 = 0.0061 | 224.65
298.14 K, x1 = 0.0249 | 230.08
298.14 K, x1 = 0.0494 | 235.35
298.14 K, x1 = 0.1 | 240.89
298.14 K, x1 = 0.1547 | 244.27
298.14 K, x1 = 0.1999 | 246.18
298.14 K, x1 = 0.2993 | 249.05
298.14 K, x1 = 0.4051 | 250.35
298.14 K, x1 = 0.4986 | 250.83
298.14 K, x1 = 0.5981 | 250.81
298.14 K, x1 = 0.7015 | 250.24
298.14 K, x1 = 0.8023 | 249.08
298.14 K, x1 = 0.9139 | 247.97
298.14 K, x1 = 0.9609 | 247.48
298.16 K, x1 = 0.0061 | 224.66
298.16 K, x1 = 0.0249 | 230.09
298.16 K, x1 = 0.0494 | 235.36
298.16 K, x1 = 0.1 | 240.91
298.16 K, x1 = 0.1547 | 244.3
298.16 K, x1 = 0.1999 | 246.2
298.16 K, x1 = 0.2993 | 249.07
298.16 K, x1 = 0.4051 | 250.39
298.16 K, x1 = 0.4986 | 250.87
298.16 K, x1 = 0.5981 | 250.84
298.16 K, x1 = 0.7015 | 250.29
298.16 K, x1 = 0.8023 | 249.11
298.16 K, x1 = 0.9139 | 248
298.16 K, x1 = 0.9609 | 247.52
299.14 K, x1 = 0.0061 | 224.99
299.14 K, x1 = 0.0249 | 230.35
299.14 K, x1 = 0.0494 | 235.67
299.14 K, x1 = 0.1 | 241.48
299.14 K, x1 = 0.1547 | 244.98
299.14 K, x1 = 0.1999 | 246.99
299.14 K, x1 = 0.2993 | 249.97
299.14 K, x1 = 0.4051 | 251.31
299.14 K, x1 = 0.4986 | 251.91
299.14 K, x1 = 0.5981 | 251.9
299.14 K, x1 = 0.7015 | 251.35
299.14 K, x1 = 0.8023 | 250.25
299.14 K, x1 = 0.9139 | 249.1
299.14 K, x1 = 0.9609 | 248.6
300.15 K, x1 = 0.0061 | 225.26
300.15 K, x1 = 0.0249 | 230.51
300.15 K, x1 = 0.0494 | 236
300.15 K, x1 = 0.1 | 241.9
300.15 K, x1 = 0.1547 | 245.57
300.15 K, x1 = 0.1999 | 247.7
300.15 K, x1 = 0.2993 | 250.81
300.15 K, x1 = 0.4051 | 252.27
300.15 K, x1 = 0.4986 | 252.92
300.15 K, x1 = 0.5981 | 253
